The values that follow come from patent US8507477B2, “3- and 6-quinolines with N-attached heterocyclic CGRP receptor antagonists” (Merck, Sharp & Dohme, Corp., priority 2008, dated 2013).

Structures are written as SMILES.

For this assay, the target named is recombinant human CL receptor/RAMP1 (Homo sapiens (Human), UniProt O60894+Q16602). The experiment in a line: Recombinant receptor binding assay (125I-hCGRP displacement, membranes of HEK 293 cells). The settings on record: membranes of HEK 293 cells expressing human CL receptor/RAMP1. The procedure: RECOMBINANT RECEPTOR: Human CL receptor (Genbank accession number L76380) was subcloned into the expression vector pIREShyg2 (BD Biosciences Clontech) as a 5′NheI and 3′PmeI fragment. Human RAMP1 (Genbank accession number AJ001014) was subcloned into the expression vector pIRESpuro2 (BD Biosciences Clontech) as a 5′NheI and 3′NotI fragment. HEK 293 cells (human embryonic kidney cells; ATCC #CRL-1573) were cultured in DMEM with 4.5 g/L glucose, 1 mM sodium pyruvate and 2 mM glutamine supplemented with 10% fetal bovine serum (FBS), 100 units/mL penicillin and 100 μg/mL streptomycin, and maintained at 37° C. and 95% humidity. Cells were subcultured by treatment with 0.25% trypsin with 0.1% EDTA in HBSS. Stable cell line generation was accomplished by co-transfecting 10 μg of DNA with 30 μg Lipofectamine 2000 (Invitrogen) in 75 cm^2 flasks. CL receptor and RAMP1 expression constructs were co-transfected in equal amounts. Twenty-four hours after transfection the cells were diluted and selective medium (growth medium+300 μg/mL hygromycin and 1 μg/mL puromycin) was added the following day. A clonal cell line was generated by single cell deposition utilizing a FACS Vantage SE (Becton Dickinson). Growth medium was adjusted to 150 μg/mL hygromycin and 0.5 μg/mL puromycin for cell propagation.
Chain of recombinant human CL receptor/RAMP1 (Q16602 23-461): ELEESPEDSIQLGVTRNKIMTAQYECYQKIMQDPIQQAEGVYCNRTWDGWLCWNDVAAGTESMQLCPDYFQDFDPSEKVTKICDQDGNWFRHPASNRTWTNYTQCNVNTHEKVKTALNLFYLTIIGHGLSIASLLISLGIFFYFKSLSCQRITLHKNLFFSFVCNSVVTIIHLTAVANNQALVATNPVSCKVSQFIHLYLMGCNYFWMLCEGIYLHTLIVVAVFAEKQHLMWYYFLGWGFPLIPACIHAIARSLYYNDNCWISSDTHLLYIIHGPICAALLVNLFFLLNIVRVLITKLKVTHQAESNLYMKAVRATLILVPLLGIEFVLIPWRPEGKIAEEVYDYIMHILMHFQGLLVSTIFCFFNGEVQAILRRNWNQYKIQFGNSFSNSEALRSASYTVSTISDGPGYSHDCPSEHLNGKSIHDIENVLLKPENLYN
Chain of recombinant human CL receptor/RAMP1 (O60894 27-148): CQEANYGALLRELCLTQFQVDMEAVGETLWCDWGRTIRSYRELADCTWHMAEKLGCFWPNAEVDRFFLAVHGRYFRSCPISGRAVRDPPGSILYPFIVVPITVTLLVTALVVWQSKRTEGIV
RECOMBINANT RECEPTOR BINDING ASSAY: Cells expressing recombinant human CL receptor/RAMP1 were washed with PBS and harvested in harvest buffer containing 50 mM HEPES, 1 mM EDTA and Complete protease inhibitors (Roche). The cell suspension was disrupted with a laboratory homogenizer and centrifuged at 48,000 g to isolate membranes. The pellets were resuspended in harvest buffer plus 250 mM sucrose and stored at −70° C. For binding assays, 20 μg of membranes were incubated in 1 ml binding buffer (10 mM HEPES, pH 7.4, 5 mM MgCl2, and 0.2% BSA) for 3 hours at room temperature containing […] ^125I-hCGRP (GE Healthcare) and antagonist. The assay was terminated by filtration through 96-well GFB glass fiber filter plates (PerkinElmer) that had been blocked with 0.05% polyethyleneimine. The filters were washed 3 times with ice-cold assay buffer (10 mM HEPES, pH 7.4 and 5 mM MgCl2). Scintillation fluid was added and the plates were counted on a Topcount (Packard). Non-specific binding was determined and the data analysis was carried out with the apparent dissociation constant (Ki) determined by using a non-linear least squares fitting the bound CPM data to the equation below:
[formula] Where Y is observed CPM bound, Ymax is total bound counts, Ymin is non specific bound counts, (Ymax−Ymin) is specific bound counts, % Imax is the maximum percent inhibition, % I min is the minimum percent inhibition, radiolabel is the probe, and the Kd is the apparent dissociation constant for the radioligand for the receptor as determined by Hot saturation experiments.
The term Ki denotes the equilibrium dissociation constant of an inhibitor or competing ligand from its target. Consider `CC(C)N1C(=O)N(Cc2cnc3cc4c(cc3c2)C[C@@]2(C4)C(=O)Nc3ncccc32)C2(CCCCCC2)C1=O` [Example 6], for which the Ki is 0.34 nM. Under `O=C1N(Cc2cnc3cc4c(cc3c2)C[C@@]2(C4)C(=O)Nc3ncccc32)[C@H](c2cc(F)cc(F)c2)CCNC12CCCC2` [Example 15] stands 0.49 nM. Under `O=C1N(Cc2cnc3cc4c(cc3c2)C[C@@]2(C4)C(=O)Nc3ncccc32)[C@H](c2cc(F)cc(F)c2)CNC12CCCC2` [Example 8] stands 0.14 nM; under `O=C1N(Cc2cnc3cc4c(cc3c2)C[C@@]2(C4)C(=O)Nc3ncccc32)C(c2ccccc2Cl)=NC12CCCC2` [Example 10], 1.3 nM. On to `O=C1N(Cc2cnc3cc4c(cc3c2)C[C@@]2(C4)C(=O)Nc3ncccc32)[C@H](c2cc(F)cc(F)c2)CCC12CCCC2` [Example 9], for which the inhibition constant (Ki) was 0.77 nM. Under `O=C1N(Cc2ccc3nc4c(cc3c2)C[C@@]2(C4)C(=O)Nc3ncccc32)[C@H](c2cc(F)cc(F)c2)CCNC12CCCC2` [Example 16] stands 0.89 nM; under `CC(C)N1C(=O)N(Cc2cnc3cc4c(cc3c2)C[C@@]2(C4)C(=O)Nc3ncccc32)C2(CCCc3ccccc32)C1=O` (stereo partly shown) [Example 5], 0.057 nM.

Take `CC(C)N1C(=O)N(Cc2cnc3cc4c(cc3c2)C[C@@]2(C4)C(=O)Nc3ncccc32)C(C)(c2ccccc2)C1=O` (stereo partly shown) [Example 12]: the Ki came out at 0.28 nM. To `CN1C[C@@](C)(c2cc(F)cc(F)c2)N(Cc2cnc3cc4c(cc3c2)C[C@@]2(C4)C(=O)Nc3ncccc32)C(=O)C12CCCC2` [Example 13] belongs 0.062 nM; to `O=C1NCCN(Cc2cnc3cc4c(cc3c2)C[C@@]2(C4)C(=O)Nc3ncccc32)C1c1ccc(F)cc1` (stereo partly shown) [Example 17], 57 nM.
